Tests used:
[1] = system: axenic iRFP-L. infantum amastigotes from bone marrow cells; assay: Axenic amastigote viability assay (iRFP fluorescence, first screening); format: cell-based; conditions: Leishmania infantum, Bone marrow cell, cut-off 25 µM, 72 h, read-out: Axenic Amastigotes (concentration with inhibition)
Protocol: (§1) The 1,5- and 1,8-fused naphthyridine derivatives were evaluated as antileishmanial agents in assays using two forms of L. infantum amastigotes: axenic amastigotes recovered from bone marrow cells of infected BALB/c mice and intramacrophagic amastigotes obtained from splenic explants of the same subjects. The L. infantum strain used is a genetically modified strain previously engineered by our group to constitutively express the infrared protein iRFP from Rhodopseudomonas palustris bacteriophytochrome (iRFP L. infantum). This strain allows monitoring the viability of both forms of the parasite by quantifying the fluorescence emitted at 700 nm by the iRFP protein produced by living amastigotes.
(§2) Amastigotes obtained from mouse bone marrow cells were used to perform a first screening with the complete series of fused 1,5- and 1,8-naphthyridines. […] The toxicity of these selected compounds was assessed in non-infected splenic cells and the cytotoxic concentration (CC50) value obtained was used to calculate the selective index (SI). The oral tolerability of these same compounds was tested by calculating the viability of murine intestinal organoids exposed to two concentrations (50 and 25 µM).
To obtain iRFP-L. infantum axenic amastigotes, femur and tibia were carefully cut at both ends, and marrow cells were removed by passing PBS through the medullary cavity with a 29G needle. The bone marrow cell suspension was filtered through a 100 µm cell strainer and centrifuged at 3500× g for 10 min at room temperature. After centrifugation, cells were resuspended in amastigote culture medium: 15 mM KCl; 136 mM KH2PO4; 10 mM K2HPO4·3H2O; 0.5 mM MgSO4. 7H2O; 24 mM NaHCO3; 22 mM glucose; 1 mM glutamine, 1xRPMI 1640 vitamin mix (Sigma-Aldrich, Merck, Darmstadt, Germany), 10 mM folic acid, 100 mM adenosine, 1xRPMI amino acid mix (Sigma-Aldrich, Merck, Darmstadt, Germany), 5 mg/mL hemin, antibiotic cocktail, 25 mM MES and 10% FBS, and incubated at 37 °C.
To test the antileishmanial effect of naphthyridines on axenic amastigotes, 40 μL of a suspension containing 3 × 10^4 iRFP-L. infantum parasites per well were incubated with another 40 μL of the drugs dilutions in amastigote culture medium with 7.5% FBS. Incubations were performed in 384-well black microtiter plates with an optical bottom at 37 °C and 5% CO2 for 72 h. Solutions of 0.1% (v/v) DMSO and 10 μM AMB were used as negative and positive controls, respectively. The assays were performed by triplicate.
(§3) The viability of axenic and intramacrophage amastigotes was calculated measuring the fluorescence emitted at 700 nm by the iRFP protein from live parasites and recorded by an Odyssey infrared imaging system (Li-Cor, NE, USA). The fluorescence emitted by the negative control wells was considered 100% viability, whereas the fluorescence emitted by the positive control wells, was adjusted to 0% viability.

[2] = system: intramacrophagic iRFP-L. infantum amastigotes from murine spleens; assay: Ex vivo intramacrophagic amastigote viability assay (iRFP fluorescence); format: cell-based, Leishmania infantum; conditions: for EC50: Leishmania infantum, ex vivo murine splenic explants, 72 h, read-out: Intracellular Amastigotes EC50; for antileishmanial activity against Leishmania amastigotes (in words): summary in discussion
Protocol: as §1, §2
Intramacrophagic amastigotes were obtained by cutting spleens into small pieces that were incubated for 25 min with 0.5 mL of collagenase D (2 mg/mL) (Merck, Darmstadt, Germany) dissolved in 4.5 mL buffer (10 mM HEPES, pH 7.4, 150 mM NaCl, 5 mM KCl, 1 mM MgCl2 and 1.8 mM CaCl2). The cell suspension was filtered through a 100 µm cell strainer. After erythrocyte lysis (150 mM NH4Cl, 1 mM KHCO3, 0.1 mM EDTA), splenocytes were centrifuged three times at 500× g for 7 min at 4 °C, with PBS washes between each centrifugation. The splenocyte suspension containing intramacrophagic amastigotes was resuspended in RPMI medium (Gibco, Fisher Scientific, Waltham, MA, USA) supplemented with 20% FBS, 1 mM sodium pyruvate, 24 mM NaHCO3, 2 mM L-glutamine, 1× RPMI vitamins, 25 mM HEPES and antibiotic cocktail.
For the ex vivo intramacrophagic amastigote assay, 40 μL of one-half or one-third serial dilutions of each diluted in supplemented RPMI medium, were added to black 384-well optical-bottom black plates containing 40 μL of murine splenocytes obtained as described above. Positive controls (containing 10 μM of AMB) and negative controls (containing 0.1% v/v DMSO) were included. The plates were incubated at 37 °C and 5% CO2, for a maximum period of 72 h and the assays were performed by triplicate.
as §3
Fluorescence emitted by intramacrophage amastigotes were plotted against the drug concentration using the nonlinear fit analysis provided by the Sigma Plot 10.1 statistical package to obtain EC50 values.

[3] = system: recombinant human DNA topoisomerase IB (hTopIB); parameters: method as in PMID 31229877, PMID 32279049, PMID 33962152; dose or concentration left out as unconfirmed; conditions: cited from earlier work
[4] = system: two cancer cell lines; parameters: method as in PMID 31229877, PMID 32279049, PMID 33962152; conditions: cited from earlier work
[5] = Cytotoxicity in uninfected murine splenic cells (alamarBlue); format: cell-based, mouse; conditions: mouse; uninfected splenic cells, 72 h, alamarBlue; read-out: Mouse Splenic Macrophages CC50
Protocol: (§4) Amastigotes obtained from mouse bone marrow cells were used to perform a first screening with the complete series of fused 1,5- and 1,8-naphthyridines. […] The toxicity of these selected compounds was assessed in non-infected splenic cells and the cytotoxic concentration (CC50) value obtained was used to calculate the selective index (SI). The oral tolerability of these same compounds was tested by calculating the viability of murine intestinal organoids exposed to two concentrations (50 and 25 µM). In order to assess the in vitro safety of the naphthyridines, cytotoxicity assays were carried out in ex vivo splenic explants from uninfected mice, which were prepared as previously described to obtain intramacrophagic amastigotes. Cells were seeded at a density of 1 × 10^6 cells per well in 96-well plates containing the prediluted compounds and incubated at 37 °C and 5% CO2 during 72 h. AlamarBlue assay (Invitrogen, Fisher Scientific, Waltham, MA, USA) was used to estimate cell viability following manufacturer’s recommendations. The assays were performed by triplicate. Absorbance of viable cells vs. compound concentrations were fitted by nonlinear analysis using the Sigma Plot 10.1 statistical package to calculate the cytotoxic concentration 50 (CC50) values. Selectivity index (SI) was calculated as the ratio between CC50 and the EC50 values of intramacrophagic amastigotes.

[6] = system: mouse splenic macrophages; assay: as above; format: cell-based; conditions: summary in discussion
Protocol: as §4

[7] = system: leishmanial DNA topoisomerase IB (LdTopIB); assay: Relaxation of supercoiled plasmid DNA assay; format: biochemical, Leishmania; conditions: 100 μM of compounds, 1 min at 37 °C, in words
Protocol: page 2: DNA DMSO 6b8a8b8c9b10b11a13a13b14a7c8d15b Relaxationof supercoiled plasmid DNA assay. Each reaction contains one unit of purified leishmanial DNA topisomeraseIB enzyme (LdTopIB), 100 μM ofcompounds, 0.5μg of supercoiled […], 10 mM Tris-HCl buffer pH 7.5, 5 mM MgCl 2, 0.1 mM EDTA, 15 μg/mL bovine serum albumin, 150 mM KCl. Reaction mixtures were incubated 1 min at 37 °C and stopped by the addition of 4 μL loading buffer (5% sarkosyl, 0.12% bromophenol blue, 25% glycerol). The topoisomerswere resolved in 1% agarose gels by electrophoresis in 0.1 M Tris borate EDTA buffer (pH 8.0) at 2 V/cm for 16 h and visualized with UV illumination after ethidium bromide (0.5μg/mL) staining. […]

O=C1Oc2ccccc2C2Nc3ncccc3[C@@H](c3ccccc3)C12 (stereo partly shown) [Compound 12a]
minimal effective concentration [1]: > 25 µM | EC50 [2]: > 20 µM

Cc1ccc(S(=O)(=O)N2Cc3c(nc4ccc(Br)nc4c3-c3ccccc3)-c3ccccc32)cc1 [Compound 9d]
minimal effective concentration [1]: > 25 µM | EC50 [2]: > 20 µM

c1ccc([C@@H]2c3ncccc3NC3c4ccccc4OCC32)cc1 (stereo partly shown) [Compound 4a]
minimal effective concentration [1]: > 25 µM

Cc1ccc2c(c1)C1Nc3ncccc3[C@@H](c3ccccc3)C1CO2 (stereo partly shown) [Compound 10c]
minimal effective concentration [1]: > 25 µM | EC50 [2]: > 20 µM

O=C1Oc2ccccc2C2Nc3cccnc3[C@@H](c3ccccc3)C12 (stereo partly shown) [Compound 6a]
minimal effective concentration [1]: > 25 µM

Brc1ccc2nc3c(c(-c4ccccc4)c2n1)COc1ccccc1-3 [Compound 5b]
minimal effective concentration [1]: > 25 µM

c1ccc([C@@H]2c3cccnc3NC3c4ccccc4OCC32)cc1 (stereo partly shown) [Compound 10a]
minimal effective concentration [1]: > 25 µM | EC50 [2]: > 20 µM | antileishmanial activity against Leishmania amastigotes (in words) [2]: not effective against Leishmania amastigotes | inhibitory effect on DNA relaxation activity of hTopIB [3]: had an inhibitory effect on DNA relaxation activity | cytotoxic effects on two cancer cell lines (concentration range) [4]: 1 to 15 µM

Fc1ccc2c(c1)-c1nc3ncccc3c(-c3ccccc3)c1CO2 [Compound 11b]
minimal effective concentration [1]: > 25 µM | EC50 [2]: > 20 µM

COc1ccc2c(n1)[C@@H](c1ccccc1)C1C(=O)Oc3ccccc3C1N2 (stereo partly shown) [Compound 6c]
minimal effective concentration [1]: > 25 µM

O=c1oc2ccccc2c2nc3cccnc3c(-c3ccccc3)c12 [Compound 7a]
minimal effective concentration [1]: > 25 µM

Cc1ccc(S(=O)(=O)N2Cc3c(nc4cccnc4c3-c3ccccc3)-c3ccccc32)cc1 [Compound 9a]
minimal effective concentration [1]: > 25 µM

COc1ccc2c(n1)[C@@H](c1ccccc1)C1COc3ccccc3C1N2 (stereo partly shown) [Compound 4c]
minimal effective concentration [1]: > 25 µM

O=c1oc2ccc(F)cc2c2nc3ncccc3c(-c3ccccc3)c12 [Compound 13c]
minimal effective concentration [1]: > 25 µM | EC50 [2]: > 20 µM

COc1ccc2nc3c(c(-c4ccccc4)c2n1)COc1ccccc1-3 [Compound 5c]
minimal effective concentration [1]: > 25 µM

O=C1Oc2ccccc2C2Nc3ncc(Br)cc3[C@@H](c3ccccc3)C12 (stereo partly shown) [Compound 12b]
minimal effective concentration [1]: > 25 µM | EC50 [2]: > 20 µM

COc1ccc(-c2c3c(nc4ncccc24)-c2ccccc2OC3)cc1 [Compound 11c]
minimal effective concentration [1]: > 25 µM | EC50 [2]: > 20 µM

COc1ccc2nc3c(c(-c4ccccc4)c2n1)CN(S(=O)(=O)c1ccc(C)cc1)c1ccccc1-3 [Compound 9c]
minimal effective concentration [1]: > 25 µM | EC50 [2]: > 20 µM

Cc1ccc(S(=O)(=O)N2Cc3c(nc4ncccc4c3-c3ccccc3)-c3ccccc32)cc1 [Compound 15a]
minimal effective concentration [1]: < 25 µM | EC50 [2]: 67.4 ± 9.78 µM | SI ([2]; ratio CC50 (splenic macrophages) / EC50 (intramacrophagic amastigotes)): 0.1 | antileishmanial activity against Leishmania amastigotes (in words) [2]: significant antileishmanial activity | CC50 at 72 h [5]: 8.78 ± 2.21 µM | toxicity (in words) [6]: significant toxicity | LdTopIB inhibitory activity [7]: did not show leishmanial DNA topoisomerase IB (LdTopIB) inhibitory activity | inhibitory effect on DNA relaxation activity of hTopIB [3]: had an inhibitory effect on DNA relaxation activity | cytotoxic effects on two cancer cell lines (concentration range) [4]: 1 to 15 µM

c1ccc(-c2c3c(nc4cccnc24)-c2ccccc2OC3)cc1 [Compound 5a]
minimal effective concentration [1]: > 25 µM

O=c1oc2ccccc2c2nc3ccc(Br)nc3c(-c3ccccc3)c12 [Compound 7b]
minimal effective concentration [1]: > 25 µM
